From patent US8889707B2, “Treatment of addiction” (priority 2012, dated 2014)

Test system: Male Sprague-Dawley rats trained for cocaine-CPP
Experiment: Cocaine-CPP memory retrieval test, PJ-34 infused before testing
Format: in vivo, rat
Settings: intra-CeA infusion, p<0.01

SMILES: CN(C)CC(=O)Nc1ccc2[nH]c(=O)c3ccccc3c2c1.Cl [PJ-34, N-(6-Oxo-5,6-dihydrophenanthridin-2-yl)-(N,N-dimethylamino)acetamide hydrochloride]
- Preference for the cocaine compartment (50 microM, 1.2 microl, tested 30 min after infusion, vs vehicle, FIG. 4A): abolished
- Abolished preference for the cocaine compartment in post-conditioning test (test 24 hours later): persisted
- Abolished preference for the cocaine compartment in post-conditioning test (test 7 days later): persisted
- Abolished preference for the cocaine compartment in post-conditioning test (test 14 days later): persisted
